In US6610502B1, “Compound 2-amino-3-[2-(α-mannopyranosyl)indol-3-yl]propionic acid, process for preparing the same, and method for inspecting function of living body with the novel compound” (Kyowa Medex Co., Ltd., priority 1997, dated 2003):

What was measured:
[1] = Quantitation of the compound in amniotic fluid by high performance liquid chromatography (Example 5); type: in vivo, human
Procedure: (§1) Standard solution of 2-amino-3-[2-(α-mannopyranosyl)indole-3-yl]propionic acid obtained in Example 1 above was prepared. Next, 350 μl of the standard solution was added to 500 μl of 0.1N hydrochloric acid containing 1% vitamin C, mixed with 50 μl of 40 μM N-methyl serotonin as an internal standard then 100 μl of 60% perchloric acid, and centrifuged at 3000 rpm at 4° C. The supernatant was filtered through a 0.22 μm filter to obtain a filtrate.
(§2) The filtrate was subjected to high performance liquid chromatography under the following conditions:
Amniotic fluids from pregnant healthy persons and pregnant patients with uremic syndrome staying in hospital were quantitated for the compound of the present invention. Amniotic fluids were collected from 21 healthy persons (21-41 weeks old) and 9 pregnant patients with uremic syndrome (24-49 weeks old), and assayed for the compound of the present invention. The quantitation was performed in the same manner as that of Example 2 except that amniotic fluids were used instead of the standard solution. The results are shown in FIG. 4 in which Δ and ● show the healthy persons and the pregnant patients with uremic syndrome, respectively. As shown in this figure, 353.0 ng/ml (SD 120.1) was obtained for the healthy persons while […] for the pregnant patients with uremic syndrome.

[2] = Quantitation of the compound in cerebrospinal fluid by high performance liquid chromatography (Example 4); type: in vivo, human
Procedure: as §1, §2
Sera and cerebrospinal fluids from healthy persons and patients with central nervous disease were quantitated for the compound of the present invention. Both sera and cerebrospinal fluids were collected from 22 healthy persons, one patient with spinocerebellar ataxia and one patient with metastatic brain tumor, and quantitated for the compound of the present invention in the sera and the cerebrospinal fluids in the same manner as that of Example 2 except that sera or cerebrospinal fluids were used instead of the standard solution. […] The result of quantitation of the compound in cerebrospinal fluids is shown in FIG. 3 in which ●, □ and Δ show the healthy persons, the patient with spinocerebellar ataxia, and the patient with metastatic brain tumor, respectively. As shown in this figure, the level of the compound in cerebrospinal fluids from healthy persons was determined to be 130.4 ng/ml (SD 29.1). The level of the compound in cerebrospinal fluid from the patient with spinocerebellar ataxia was determined to be 399.4 ng/ml. The level of the compound in cerebrospinal fluid from the patient with metastatic brain tumor was determined to be 822.6 ng/ml.

range of levels in amniotic fluids from 99% of subjects ([1]; healthy persons (n=21)): 113 to 593 ng/mL
level in amniotic fluids ([1]; pregnant healthy persons (n=21), SD 120.1): 353.0 ng/mL
range of levels in amniotic fluids from 99% of subjects ([1]; pregnant patients with uremic syndrome (n=9)): 675 to 2147 ng/mL
level in amniotic fluids ([1]; pregnant patients with uremic syndrome (n=9), SD 367.9): 410.7 ng/mL
range of levels in cerebrospinal fluids from 99% of subjects ([2]; healthy persons (n=22)): 72 to 188 ng/mL
level in cerebrospinal fluids ([2]; healthy persons (n=22), SD 29.1): 130.4 ng/mL
level in cerebrospinal fluid ([2]; one patient with metastatic brain tumor): 822.6 ng/mL
SMILES: NC(Cc1c([C@H]2O[C@H](CO)[C@@H](O)[C@H](O)[C@@H]2O)[nH]c2ccccc12)C(=O)O (stereo partly drawn) [the present compound, 2-amino-3-[2-(α-mannopyranosyl)indole-3-yl]propionic acid]
level in cerebrospinal fluid ([2]; one patient with spinocerebellar ataxia): 399.4 ng/mL
levels in cerebrospinal fluids ([2]; patients with spinocerebellar ataxia or metastatic brain tumor): ≥ 400 ng/mL
